The molecules below were run on KKA^Y mice (assay: Glucose, insulin and triglyceride in diabetic KKAy mice treated with exemplary compounds). Details: 93 mg/kg oral for 4 days, blood approx. 18 h after last dose, fasted, Vehicle A 24 (5).
Type: in vivo
Method: (§1) The insulin sensitizing and antidiabetic pharmacology are measured in the KKA^Y mice as previously reported [Hofmann, C., Lornez, K., and Colca, J. R. (1991). Glucose transport deficiency corrected by treatment with the oral anti-hyperglycemic agent Pioglitazone. Endocrinology, 129:1915-1925.] Compounds are formulated in 1% sodium carboxy methylcellulose, and 0.01% tween 20 and dosed daily by oral gavage.
Glucose, Insulin, and Triglyceride in Diabetic KKAy Mice Treated with Exemplary Compounds of the Present Invention.
as §1, with “129:1915-1925.].” for “129:1915-1925.]”
Compounds were formulated by suspension and orally dosed to KKA^Y mice at 93 mg/kg for 4 days. The compounds were first dissolved in DMSO and then placed into aqueous suspension containing 7-10% DMSO, 1% sodium methylcarboxycellulose, and 0.01% Tween 20. On the fifth day, the mice were fasted and blood samples were obtained approximately 18 hours after the last dose. The parameters were measured by standard assay methods. Data are mean and SEM N=6-12 mice.

First: O=C1NC(=O)C(Cc2ccc(OCC(=O)c3ccccc3Cl)cc2)S1 (stereo not drawn) [Compound 8, 5-{4-[2-(2-chlorophenyl)-2-oxoethoxy]benzyl}-1,3-thiazolidine-2,4-dione]
Second: O=C1NC(=O)C(Cc2ccc(OCC(=O)c3ccccc3F)cc2)S1 (stereo not drawn) [Compound 3, 5-{4-[2-(2-fluorophenyl)-2-oxoethoxy]benzyl}-1,3-thiazolidine-2,4-dione]
The “Insulin (Mean/SD)” value of the first is higher: 0.47 for the first, 0.20 for the second.

Compared with O=C1NC(=O)C(Cc2ccc(OCC(=O)c3cccc(F)c3)cc2)S1 (stereo not drawn) [Compound 4, 5-{4-[2-(3-fluorophenyl)-2-oxoethoxy]benzyl}-1,3-thiazolidine-2,4-dione], O=C1NC(=O)C(Cc2ccc(OCC(=O)c3cccc(Cl)c3)cc2)S1 (stereo not drawn) [Compound 7, 5-{4-[2-(3-chlorophenyl)-2-oxoethoxy]benzyl}-1,3-thiazolidine-2,4-dione] is higher in “Insulin (Mean/SD)” value: 0.24 for the first, 0.59 for the second.

Going from O=C1NC(=O)C(Cc2ccc(OCC(=O)c3ccc(F)cc3)cc2)S1 (stereo not drawn) [Compound 2, 5-{4-[2-(4-fluorophenyl)-2-oxoethoxy]benzyl}-1,3-thiazolidine-2,4-dione] to COc1ccc(C(=O)COc2ccc(CC3SC(=O)NC3=O)cc2)cc1 (stereo not drawn) [Compound 9, 5-{4-[2-(4-methoxyphenyl)-2-oxoethoxy]benzyl}-1,3-thiazolidine-2,4-dione], the “Insulin (Mean/SD)” value rises from 0.10 to 0.76.

— patent US8937182B2, “Synthesis for thiazolidinedione compounds” (Metabolic Solutions Development Company, LLC, priority 2010, dated 2015)
